How the values were obtained:
[1] = test system: A549 cells; assay: Apoptotic cell death assay (Annexin V/PI); format: cell-based, human
From the text: Supplemental Materials and Methods
Small molecule NSC14073 (BKA-073) was obtained from the Drug Synthesis and Chemistry Branch, Developmental Therapeutic Program, Division of Cancer Treatment and Diagnosis, National Cancer Institute (NCI, Bethesda, MD) (http://dtp.nci.nih.gov/RequestCompounds).
Venetoclax (ABT-199, 205807) was purchased from MedKoo Biosciences (Morrisville, NC).
Antibodies including PARP (sc-8007), Bax (sc-7480), Mcl-1 (sc-12756), cytochrome c (sc-13156) and actin (sc-47778) were purchased from Santa Cruz (Santa Cruz, CA). Bcl2 antibody (05-826) was obtained from Calbiochem (Darmstadt, Germany). Bcl-XL (ab32370), Bak (ab32371) and Bax (ab104156) antibodies were purchased from Abcam (Cambridge, MA).
Active caspase 3 (9579S) and Mcl-1 (94296S) antibodies were purchased from Cell Signaling Technology (Danvers, MA). Fluorescent Bak BH3 domain peptide (FAM-GQVGRQLAIIGDDINR) and purified Bcl-XL protein were purchased from NeoBioSciTM (Cambridge, MA). Bim BH3 peptide (AS-62278) was obtained from AnaSpec, Inc. (Fremont, CA). Purified recombinant human Bak protein (BAK1-26166TH) was purchased from Creative Biomart (Shirley, NY). Purified recombinant human Bax protein (H00000581-P01) was obtained from Novus Biologicals (Littleton, CO) and purified human Bcl-XL protein (SRP0187) was purchased from Sigma-Aldrich (St. Louis, MO). Purified human Bcl2 protein was obtained from ProteinX Lab (San Diego, CA). Purified recombinant human Mcl-1 protein (GWB-P0342D) was purchased from GenWay Biotech, Inc. (San Diego, CA). Purified recombinant human Bcl-w (824-BW-050) protein was obtained from R&D systems (Minneapolis, MN). Bis (maleimido) hexane (BMH) (22330) was purchased from Thermo Scien tific (Rockford, IL). JC -1 (ENZ-52304) was obtained from Enzo Life Sciences, Inc. (Farmingdale, NY). All other reagents used were obtained from commercial sources unless otherwise stated. […]
Apoptotic cell death assay
Apoptotic cells were detected using Annexin-V Apoptosis Detection Kit (556547, BD Biosciences, San Jose, CA) according to the manufacturer’s instructions. After treatment with BKA-073 or other agent(s) for 72h, cells were washed twice with cold 1x PBS and then resuspended in 1 x Binding Buffer at a concentration of 1 x 10^6 cells/ml. 100 μl of the solution […]
(1 x 10^5 cells) was transferred to a 5 ml culture tube, followed by the addition of 5 μl of FITC Annexin V and 5 μl propidium iodide (PI). The cells were gently vortexed and incubated for 15 min at RT (25°C) in the dark. 400 μl of 1x binding buffer was added to each tube. […]
mM DTT] in black 96-well microplates. The plate was mixed o n a shaker for 1 minute and incubated at room temperature for an additional 15 minutes. The FP values (in millipolarization units) were measured using a fluorescence microplate reader at 485/530 nm (Gemini XPS, Molecular Devices). Data analysis and inhibit ory constant (Ki) value was determined by GraphPad prism software as described.
Cloning, protein expression and purification of mouse B ak protein
The clone pMIH-mRuby2-mouse Bak (#111627) for generation of mouse Bak protein was obtained from Addgene (Watertown, MA). The mouse Bak cDNA was cloned into pET29b expression vector between BglII and XhoI sites as His tag fusions. The BL21 DE3 Escherichia coli containing plasmid was grown at 37°C in LB (Luria-Bertani) media. The protein expression was induced with IPTG (0.2 mM) at 18°C for 16 h when the density reached an OD600 of 0.6.
Bacteria were then harvested and resuspended in 30 ml buffer A (20 mM Tris, pH 8.0, 120 mM NaCl, 10% glycerol, and protease inhibitor cocktail) and lysed by sonication. The lysate was centrifuged at 14,000 rpm for 30 min. The resulting supernatant was incubated with HisPur Cobalt Resin (Thermo Scientific) at 4 °C for 2h. After washing wi th buffer A, His-tagged mouse Bak proteins was eluted with buffer B (20 mM Tris, pH 8.0, 120 mM NaCl, 300 mM imidazole, 10% glycerol with protease inhibitor). The elution peak of interest was checked by SDS -PAGE […]

[2] = test system: SCLC PDXs (TKO-2 and TKO-5); assay: SCLC patient-derived xenografts, tumor growth; format: in vivo, Nu/Nu nude mice; conditions: 15mg/kg/d i.p., 2-4 weeks
Description: Six-week-old female Nu/Nu nude mice were purchased from Envigo (Indianapolis, IN) and housed under pathogen-free conditions in microisolator cages. The animal propagation protocol was approved by the Emory Institutional Animal Care and Use Committee (IACUC) and the Emory Animal Ethics Committee. 3×10^6 lung cancer cells were injected into subcutaneous tissue in the flank region of nude mice. The tumors were allowed to grow to an average volume of 150~200 mm^3 prior to initiation of therapy as previously described, [29]. Patient-derived xenografts (PDXs, TKO-002 and TKO-005) were established as part of an IRB-approved phase II co-clinical trial of arsenic trioxide in patients with relapsed SCLC who had failed standard platinum-based chemotherapy. Tumor samples were obtained by image-guided biopsy and were directly implanted into Nu/Nu nude mice without intervening propagation in plastic culture plates. Direct serial propagation of growing tumor occurred for up to 5 generations. The animal propagation protocol was approved by the Emory IACUC and the Emory Animal Ethics Committee. Mice with SCLC and NSCLC xenografts or PDXs were treated with BKA-073 intraperitoneally (i.p.) or venetoclax orally as indicated. During treatment, tumor volume (V) was measured by caliper measurements once every two days as described previously. Mice were euthanized by CO2 inhalation at the end of treatment. […]

SMILES: COc1ccc2nc3ccccc3c(NCCNCC(C)O)c2c1 (stereo not drawn) [BKA-073]
- induction of apoptotic cell death ([1]; 0, 0.25, 0.5, 0.75, 1.0 µM, 72h): in a dose-dependent manner
- sensitivity (DBP and apoptosis) ([1]; A549 Bak-/- cells expressing A79E Bak, 1 µM): completely or partially restored sensitivity
- sensitivity (DBP and apoptosis) ([1]; A549 Bak-/- cells expressing D83E Bak, 1 µM): failed to restore sensitivity
- sensitivity (DBP and apoptosis) ([1]; A549 Bak-/- cells expressing I80E Bak, 1 µM): completely or partially restored sensitivity
- sensitivity (DBP and apoptosis) ([1]; A549 Bak-/- cells expressing N86E Bak, 1 µM): failed to restore sensitivity
- sensitivity (DBP and apoptotic cell death) ([1]; A549 Bak-/- cells expressing exogenous WT Bak, 1 µM): restored sensitivity
- sensitivity (DBP and apoptotic cell death) ([1]; A549 Bak-/- cells expressing ΔBH3 mutant Bak, 1 µM): failed to restore sensitivity
- sensitivity (DBP and apoptotic cell death) ([1]; A549 Bak-/- cells transfected with vector-only, 1 µM): resistant
- apoptotic cell death ([1]; Bak-/- A549 cells): ~ 20%
- sensitivity (DBP and apoptotic cell death) ([1]; Bak-/- A549 cells, 1μM, 16h or 72h): significant resistance
- sensitivity (DBP and apoptotic cell death) ([1]; Bax-/- A549 cells, 1μM, 16h or 72h): sensitive
- apoptotic cell death ([1]; DKO A549 cells): ~ 20%
- sensitivity (DBP and apoptotic cell death) ([1]; DKO A549 cells, 1μM, 16h or 72h): significant resistance
- sensitivity (DBP and apoptotic cell death) ([1]; parental A549 cells, 1μM, 16h or 72h): sensitive
- tumor growth [2]: potently suppressed tumor growth
